Data: patent US8962265B2, “Mutant parasites for use as vaccines and platforms for screening for compounds” (Indiana University Research and Technology Corp., priority 2010, dated 2015)

Test system: TgIF2α
Assay: Western blot of TgIF2α phosphorylation
Assay type: cell-based, Toxoplasma gondii
Conditions: wild-type parasites treated with the ionophore
Description: In order to confirm that the TgIF2α-S71A clone could not be phosphorylated under normal physiological condition, a Western blot of lysates from parasites treated with the ionophore A23187 was carried out using antisera that specifically recognizes TgIF2α which is phosphorylated at ser-71 or total TgIF2α protein (Narasimhan et al., 2008b; Sullivan Jr. et al., 2004b). Referring now to FIG. 1C, equal amounts of protein lysates from WT or TgIF2α-S71A tachyzoites were resolved on a 4-12% polyacrylamide gel and transferred to a membrane for immunoblotting with antibody that specifically recognizes TgIF2α phosphorylated at ser-71 (TgIF2α-P) or total TgIF2α protein. […]
Next addressed was whether TgIF2K-D is required for induced TgIF2α phosphorylation when the parasite is outside of the host cell. Referring now to FIG. 9A, TgIF2α phosphorylation was analyzed by separating cell lysates via denaturing SDS-PAGE, followed by western blotting using antibodies to total TgIF2α or phosphorylated TgIF2α (TgIF2α˜P). […]
Phosphorylation of TgIF2α was monitored by Western blotting performed in accordance with standard methods. […]
Western blot analyses of TgIF2α phosphorylation were carried out as previously described. […] HA-tagged proteins were detected by western blot analyses after resolving parasite lysate on a 3-8% Tris-acetate polyacrylamide gradient gel. […]

In the case of `CNc1ccc2oc(C[C@H]3O[C@@]4(CC[C@H]3C)O[C@H]([C@H](C)C(=O)c3ccc[nH]3)[C@H](C)C[C@H]4C)nc2c1C(=O)O` [A23187], the “induction of TgIF2α phosphorylation” value is reported as “potent inducer”.
